# Where two headings read alike, the source gives them in different places.
# Legend:
# NDM-1 = NDM-1 (Klebsiella pneumoniae, UniProt C7C422); experiment: biochemical; type: biochemical; details: read-out: NDM-1 IC50
# IMP-1 = IMP-1 (Serratia marcescens, UniProt P52699); experiment: biochemical; type: biochemical; details: read-out: IMP-1 IC50
# [1] = system: Escherichia coli expressing NDM-1 (CLB30005); experiment: Antibiotic potentiation activity: synergistic concentration (MITC95) with imipenem, OD600 growth; type: cell-based; details: for Escherichia coli expressing NDM-1 (CLB 30005) MITC95: concentration giving 95% inhibition of bacterial growth; for Escherichia coli MITC95: Escherichia coli expressing NDM-1 (CLB30005), 95% growth inhibition
# How it was run: (§1)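 Clinical MBL-producing strains (E. coli NDM-1, S. marcescens IMP-1, K. pneumoniae VIM-1) from overnight plates were diluted 1:100 into 1.1×CAMHB. Compound was tested with imipenem at 4 μg/ml (optionally 1 μg/ml) or without it. After 22–24 h at 35 °C, growth was read as OD600.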
# [2] = system: Serratia marcescens expressing IMP-1 (CL5741); experiment: as above; type: cell-based; details: for Serratia marcescens expressing IMP-1 (CL5741) MITC95: concentration giving 95% inhibition of bacterial growth
# How it was run: as §1
# [3] = system: Klebsiella pneumoniae expressing VIM-1 (IHMA599644); experiment: as above; type: cell-based; details: for Klebsiella pneumoniae expressing VIM-1 (IHMA 599644) MITC95: concentration giving 95% inhibition of bacterial growth
# How it was run: as §1
# VIM-1 = VIM-1 (Pseudomonas aeruginosa (strain ATCC 15692 / DSM 22644 / CIP 104116 / JCM 14847 / LMG 12228 / 1C / PRS 101 / PAO1), UniProt A0A0F7KYQ8); experiment: Enzyme activity: determination of IC50, fluorescence assay with CCF2-FA substrate (VIM-1); type: biochemical
# [4] = system: Escherichia coli expressing NDM-1 (CLB30016); experiment: Antibiotic potentiation activity: synergistic concentration (MITC95) with imipenem, OD600 growth; type: cell-based
# How it was run: as §1
# [5] = fluorescence assay with CCF2-FA substrate
# [6] = NDM-1 enzyme, CCF2-FA fluorescence assay
# [7] = Serratia marcescens expressing IMP-1 (CL5741), 95% growth inhibition
# [8] = Klebsiella pneumoniae expressing VIM-1 (IHMA599644), 95% growth inhibition
# [9] = IMP-1 enzyme, CCF2-FA fluorescence assay
# [10] = VIM-1 enzyme, CCF2-FA fluorescence assay, read-out: VIM-1 IC50
# [11] = Escherichia coli expressing NDM-1 (CLB30016), 95% growth inhibition
# NDM-1, sequence (C7C422 whole entry, looked up, species assumed): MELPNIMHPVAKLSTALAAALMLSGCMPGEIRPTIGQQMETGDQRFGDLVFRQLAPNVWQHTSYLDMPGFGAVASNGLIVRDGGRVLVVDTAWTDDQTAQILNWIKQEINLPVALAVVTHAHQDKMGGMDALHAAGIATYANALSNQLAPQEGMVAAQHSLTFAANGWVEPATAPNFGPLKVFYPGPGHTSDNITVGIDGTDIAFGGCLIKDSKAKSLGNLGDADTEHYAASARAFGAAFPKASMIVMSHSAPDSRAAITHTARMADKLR
# IMP-1, sequence (P52699 whole entry, looked up): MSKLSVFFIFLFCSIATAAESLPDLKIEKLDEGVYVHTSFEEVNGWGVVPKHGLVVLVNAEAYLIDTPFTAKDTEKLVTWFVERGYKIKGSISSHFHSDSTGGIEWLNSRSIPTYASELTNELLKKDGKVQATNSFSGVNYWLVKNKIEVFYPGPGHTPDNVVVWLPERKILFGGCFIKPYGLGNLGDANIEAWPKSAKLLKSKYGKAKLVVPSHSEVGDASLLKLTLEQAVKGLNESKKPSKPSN
Structure (SMILES),IC50 (NDM-1; [5]),IC50 (IMP-1; [5]),Escherichia coli expressing NDM-1 (CLB 30005) MITC95 [1],Serratia marcescens expressing IMP-1 (CL5741) MITC95 [2],Klebsiella pneumoniae expressing VIM-1 (IHMA 599644) MITC95 [3],IC50 (NDM-1; [6]),"Serratia marcescens MITC95 [2, 7]","Klebsiella pneumoniae MITC95 [3, 8]",further results
"NS(=O)(=O)c1cccc(-c2ccc(OCCN3CCCCC3)cc2)c1-c1nn[nH]n1 [Example 89, 4′-(2-piperidin-1-ylethoxy)-2-(2H-tetrazol-5-yl)biphen-3-sulfonamide]",0.0547 µM,0.319 µM,4.688 µM,12.5 µM,>200 µM,–,–,–,–
"NS(=O)(=O)c1cccc(-c2csc(CN3CCOCC3)c2)c1-c1nn[nH]n1 [Example 103, 3-[5-(morpholin-4-ylmethyl)thiophen-3-yl]-2-(2H-tetrazol-5-yl)benzenesulfonamide]",0.0494 µM,0.311 µM,9.375 µM,15.63 µM,>200 µM,–,–,–,–
"NS(=O)(=O)c1cccc(-c2ncccn2)c1-c1nn[nH]n1 [Example 39, 3-pyrimidin-2-yl-2-(2H-tetrazol-5-yl)benzenesulfonamide]",0.346 µM,2.57 µM,1.563 µM,50 µM,>200 µM,–,–,–,–
"COC(=O)c1ccc(-c2nn[nH]n2)c(S(N)(=O)=O)c1 [Example 255, Methyl 3-sulfamoyl-4-(2H-tetrazol-5-yl)benzoate]",–,–,–,–,–,0.699 µM,>200 µM,>200 µM,Escherichia coli MITC95 [1]: 25 µM
"CCOC(=O)CCn1cc(-c2cccc(S(N)(=O)=O)c2-c2nn[nH]n2)cn1 [Example 110, ethyl 3-{4-[3-sulfamoyl-2-(2H-tetrazol-5-yl)phenyl]-1H-pyrazol-1-yl}propanoate]",0.0519 µM,0.445 µM,9.375 µM,28.13 µM,>200 µM,–,–,–,–
"NS(=O)(=O)c1cccc(C#CCN2CCC(=O)CC2)c1-c1nn[nH]n1 [Example 146, 3-[3-(4-oxopiperidin-1-yl)prop-1-yn-1-yl]-2-(2H-tetrazol-5-yl)benzenesulfonamide]",0.0655 µM,0.766 µM,1.172 µM,50 µM,>200 µM,–,–,–,–
"NS(=O)(=O)c1nccc(-c2cccnc2)c1-c1nnn[nH]1 [Example 193, 3′-(1H-tetrazol-5-yl)-[3,4′-bipyridine]-2′-sulfonamide]",0.374 µM,2.66 µM,0.7813 µM,150 µM,37.5 µM,–,–,–,–
"Cn1ccnc1-c1cccc(S(N)(=O)=O)c1-c1nn[nH]n1 [Example 38, 3-(1-methyl-1H-imidazol-2-yl)-2-(2H-tetrazol-5-yl)benzenesulfonamide]",0.281 µM,2.39 µM,0.7813 µM,25 µM,200 µM,–,–,–,–
"NS(=O)(=O)c1cccc(-c2ccnc(CO)c2)c1-c1nn[nH]n1 [Example 92, 3-[2-(hydroxymethyl)pyridin-4-yl]-2-(2H-tetrazol-5-yl)benzenesulfonamide]",–,–,0.3906 µM,50 µM,–,–,–,–,–
"NS(=O)(=O)c1ccc2ccccc2c1-c1nnn[nH]1 [Example 399, 1-(1H-tetrazol-5-yl)naphthalene-2-sulfonamide]",–,–,–,–,–,0.117 µM,>200 µM,>200 µM,IC50 (IMP-1; [9]): 15.1 µM; Escherichia coli MITC95 [1]: 3.906 µM
"NS(=O)(=O)c1cccc(-c2nccs2)c1-c1nn[nH]n1 [Example 35, 2-(2H-tetrazol-5-yl)-3-(1,3-thiazol-2-yl)benzenesulfonamide]",0.138 µM,2.68 µM,1.953 µM,50 µM,100 µM,–,–,–,–
"Cn1cncc1-c1cccc(S(N)(=O)=O)c1-c1nn[nH]n1 [Example 43, 3-(1-methyl-1H-imidazol-5-yl)-2-(2H-tetrazol-5-yl)benzenesulfonamide]",0.31 µM,2.09 µM,1.172 µM,75 µM,>200 µM,–,–,–,–
"NS(=O)(=O)c1cccc(-c2cnc3ccccn23)c1-c1nnn[nH]1 [Example 404, 3-imidazo[1,2-a]pyridin-3-yl-2-(1H-tetrazol-5-yl)benzenesulfonamide]",–,–,–,–,–,0.000817 µM,1.708 µM,2.563 µM,"IC50 (VIM-1; [10]): 0.00541 µM; IC50 (IMP-1; [9]): 0.0714 µM; Escherichia coli MITC95 [4, 11]: 0.0625 µM"
"NS(=O)(=O)c1c(Cl)ccc(-c2ccc(C3CCNCC3)cc2)c1-c1nn[nH]n1 [Example 276, 4-chloro-4′-(piperidin-4-yl)-2-(2H-tetrazol-5-yl)-[1,1′-biphenyl]-3-sulfonamide]",–,–,–,–,–,0.00551 µM,0.3906 µM,1.563 µM,"IC50 (VIM-1; VIM-1 IC50, VIM-1 enzyme, CCF2-FA fluorescence assay): 0.00338 µM; IC50 (IMP-1; [9]): 0.00875 µM; Escherichia coli MITC95 [4, 11]: 0.7813 µM"
"NS(=O)(=O)c1c(C(F)(F)F)ccc(-c2cccc3ncccc23)c1-c1nn[nH]n1 [Example 486, 3-(Quinolin-5-yl)-2-(2H-tetrazol-5-yl)-6-(trifluoromethyl)benzenesulfonamide]",–,–,–,–,–,0.000192 µM,0.1367 µM,4.531 µM,"IC50 (VIM-1; [10]): 0.000134 µM; IC50 (IMP-1; [9]): 0.00119 µM; Escherichia coli MITC95 [4, 11]: 1.208 µM"
"NS(=O)(=O)c1c(C(F)(F)F)ccc(-c2cnc3ccccn23)c1-c1nnn[nH]1 [Example 748, 3-imidazo[1,2-a]pyridin-3-yl-2-(1H-tetrazol-5-yl)-6-(trifluoromethyl)benzenesulfon-amide]",0.000833 µM,0.00125 µM,–,–,–,–,–,–,"IC50 (VIM-1; VIM-1 IC50, fluorescence assay with CCF2-FA substrate): 0.000248 µM; Serratia marcescens MITC95 ([2]; CL5741 (IMP-1), 95% inhibition of bacterial growth): 6.25 µM; Klebsiella pneumoniae MITC95 ([3]; IHMA599644 (VIM-1), 95% inhibition of bacterial growth): 6.25 µM; Escherichia coli MITC95 ([4]; CLB30016 (NDM-1), 95% inhibition of bacterial growth): 0.7813 µM"

# Source: patent publication US9708336B2, “Metallo-beta-lactamase inhibitors” (priority 2014, dated 2017)
